The text below walks through data of patent US20210277003A1, “OGA INHIBITOR COMPOUNDS” (Janssen Pharmaceutica NV, priority 2018, published 2021).

Assay [1] deals with T1, recombinant human Meningioma Expressed Antigen 5 (MGEA5), also referred to as O-GlcNAcase (OGA) (Homo sapiens, UniProt O60502).
T1 construct: Full length OGA enzyme was purchased at OnGene (cat #TP322411); purchased OnGene (so in the source)
T1 sequence (O60502 1-916): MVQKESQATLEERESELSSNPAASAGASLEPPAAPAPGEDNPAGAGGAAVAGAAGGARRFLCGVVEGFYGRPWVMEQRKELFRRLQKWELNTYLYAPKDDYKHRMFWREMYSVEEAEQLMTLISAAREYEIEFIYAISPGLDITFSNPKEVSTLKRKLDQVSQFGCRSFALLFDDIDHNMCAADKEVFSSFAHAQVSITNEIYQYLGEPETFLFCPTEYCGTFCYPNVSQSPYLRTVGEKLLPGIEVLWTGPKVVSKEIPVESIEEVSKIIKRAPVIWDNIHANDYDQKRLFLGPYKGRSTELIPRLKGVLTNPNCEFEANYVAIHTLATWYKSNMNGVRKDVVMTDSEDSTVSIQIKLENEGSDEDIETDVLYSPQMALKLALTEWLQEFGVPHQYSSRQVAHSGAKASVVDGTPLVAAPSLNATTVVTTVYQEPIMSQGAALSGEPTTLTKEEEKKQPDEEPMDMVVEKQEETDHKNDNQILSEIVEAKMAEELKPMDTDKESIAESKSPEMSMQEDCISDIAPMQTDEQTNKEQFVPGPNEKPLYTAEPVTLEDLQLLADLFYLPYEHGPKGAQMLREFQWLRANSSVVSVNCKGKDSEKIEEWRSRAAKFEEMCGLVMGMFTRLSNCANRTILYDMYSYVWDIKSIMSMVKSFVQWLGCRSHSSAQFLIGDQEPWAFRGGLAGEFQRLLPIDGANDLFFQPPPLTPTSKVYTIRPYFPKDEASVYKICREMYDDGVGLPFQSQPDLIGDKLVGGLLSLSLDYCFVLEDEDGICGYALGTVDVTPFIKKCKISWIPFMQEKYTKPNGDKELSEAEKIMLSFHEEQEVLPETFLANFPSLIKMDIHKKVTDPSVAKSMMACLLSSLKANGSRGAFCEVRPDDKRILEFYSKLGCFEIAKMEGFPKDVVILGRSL
Description: OGA biochemical assay: inhibition of hydrolysis of fluorescein mono-ß-D-N-Acetyl-Glucosamine (FM-GlcNAc), fluorescence readout. As to conditions: FM-GlcNAc substrate; for Emax: read-out: Enzymatic Emax (%); for IC50: read-out: Enzymatic hOGA, pIC50 (converted). In short, it runs like this:
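Full-length recombinant human OGA (2 nM) was pre-incubated with compound for 60 min, then reacted with 100 uM FM-GlcNAc for 6 h at room temperature in 200 mM citrate/phosphate pH 7.2 with 0.005% Tween-20. Reactions were stopped with pH 11.0 carbonate and fluorescein read at 485/538 nm. IC50 and Hill coefficient came from curve fitting.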

For assay [2], the system named is OGA in HEK293 cells inducible for P301L mutant human Tau (isoform 2N4R). In words: OGA cellular assay: immunocytochemical detection of O-GlcNAcylated proteins (CTD110.6 antibody). It counts as cell-based. Conditions: Homo sapiens, HEK293, 6 h, 6 hours incubation; for Emax: maximum = Thiamet G 200 uM; for EC50: read-out: Cellular hOGA, pEC50 (converted). In short, it runs like this: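 Cells seeded 2 days ahead in low-glucose assay medium and exposed to compounds for 6 h at 0.2% DMSO, then PFA-fixed and immunostained. Signal is 488 nm intensity from imaging (9 fields/well), with Hoechst nuclei counts as a toxicity check. IC50 from non-linear regression, with 200 uM Thiamet G per plate as maximum inhibition.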

A word on the Emax: it is the maximal effect, on the per cent scale that the assay sets. `Cc1ccnc(C(F)F)c1Nc1nccc2c1ccn2CC1CCO1` (centres unmarked) [Compound 81]: in assay [1], the Emax came out at 102% and the IC50 was 9.55 nM. In assay [2], the Emax stood at 74% and the EC50 was 102 nM.

`CC(C)(C#N)Cn1ccc2c(Nc3c(Cl)cc(F)cc3Cl)nccc21` [Compound 83]: in assay [1], the Emax is 96% and the IC50 is 912 nM. In assay [2], the Emax was found to be 8% and the EC50 was above 1000 nM.

Regarding `Cc1ccnc(C)c1Nc1nccc2c1ccn2CC(C)(C)C#N` [Compound 84], in assay [1], the Emax was found to be 86% and the IC50 is 2140 nM. Further, in assay [2], the Emax amounted to 8% and the EC50 is above 1000 nM.

Take `Cc1ccnc(C(C)C)c1Nc1nccc2c1ccn2CC(F)(F)C1CC1` [Compound 85]: in assay [1], the Emax worked out at 104% and the IC50 was 0.977 nM. In addition, in assay [2], the Emax was determined as 94% and the EC50 is 0.708 nM.

On to `CCCCn1ccc2c(Nc3c(C)cncc3C(F)(F)F)nccc21` [Compound 86], for which, in assay [1], the Emax was determined as 101% and the IC50 was 21.9 nM. For the same molecule, in assay [2], the Emax was determined as 71% and the EC50 is 309 nM.

Turning to `CCCCn1ccc2c(Nc3c(C)cc4c(cnn4C)c3C)nccc21` [Compound 87], in assay [1], the Emax was 102% and the IC50 was 4.79 nM. Besides, in assay [2], the Emax stood at 87% and the EC50 is 12.9 nM.

For the molecule `CCCCn1ccc2c(Nc3c(C)cc4c(c3C)CC(=O)N(C)C4)nccc21` [Compound 88], in assay [1], the Emax came to 103% and the IC50 is 4.07 nM. Besides, in assay [2], the Emax was found to be 95% and the EC50 was 10.7 nM.

In the case of `Cc1ccnc(C)c1Nc1nccc2c1ccn2CCC(C)(F)F` [Compound 90], in assay [1], the “Enzymatic hOGA; pIC50” value stood at 7.31 and the Emax came out at 102%. Further, in assay [2], the Emax was 62% and the EC50 is 363 nM.

Take `FC1(F)CC(Cn2ccc3c(Nc4c(Cl)cccc4Cl)nccc32)C1` [Compound 91]: in assay [1], the “Enzymatic hOGA; pIC50” value turned out to be 8 and the Emax was 102%. Moreover, in assay [2], the Emax came to 73% and the EC50 was 79.4 nM.

Regarding `Cc1ccnc(C)c1Nc1nccc2c1ccn2CC1CC(F)(F)C1` [Compound 92], in assay [1], the “Enzymatic hOGA; pIC50” value amounted to 7.38 and the Emax worked out at 103%. Further, in assay [2], the Emax was found to be 75% and the EC50 is 151 nM.

`FC1(F)CC1CCn1ccc2c(Nc3c(Cl)cccc3Cl)nccc21` (centres unmarked) [Compound 95]: in assay [1], the “Enzymatic hOGA; pIC50” value came to 7.61 and the Emax is 104%. Also, in assay [2], the Emax came out at 63% and the EC50 is 525 nM.

Regarding `Cc1ccnc(C)c1Nc1nccc2c1ccn2CCC(F)F` [Compound 96], in assay [1], the “Enzymatic hOGA; pIC50” value came to 7.1 and the Emax is 102%. Besides, in assay [2], the Emax is 60% and the EC50 is 513 nM.

For `FC(F)CCn1ccc2c(Nc3c(Cl)cccc3Cl)nccc21` [Compound 97], in assay [1], the “Enzymatic hOGA; pIC50” value is recorded as 7.9 and the Emax came out at 101%. Besides, in assay [2], the Emax amounted to 78% and the EC50 is 347 nM.

As for `CCCCn1ccc2c(Nc3c(C)cc(CF)cc3C)nccc21` [Compound 101], in assay [1], the Emax was found to be 103% and the IC50 is 3.24 nM. Besides, in assay [2], the Emax is 83% and the EC50 was 57.5 nM.

In the case of `Cc1cncc(Cl)c1Nc1nccc2c1ccn2CC1CC1` [Compound 110], in assay [1], the “Enzymatic hOGA; pIC50” value is on record as 7.54 and the maximal effect (Emax) was 100%. In assay [2], the Emax was found to be 48% and the EC50 is 363 nM.

Consider `CCC(F)(F)Cn1ccc2c(Nc3c(C)ccnc3C(C)C)nccc21` [Compound 112], for which, in assay [1], the “Enzymatic hOGA; pIC50” value was determined as 8.88 and the Emax is 102%. Moreover, in assay [2], the Emax was 92.3% and the EC50 was around 1.82 nM.

In the case of `CCC(F)(F)Cn1ccc2c(Nc3c(Cl)cccc3Cl)nccc21` [Compound 113], in assay [1], the “Enzymatic hOGA; pIC50” value amounted to 8.9 and the Emax was determined as 106%. In addition, in assay [2], the Emax stood at 93% and the EC50 is 7.94 nM.

For the molecule `Cc1ccnc(OC(F)F)c1Nc1nccc2c1ccn2CC1CC(F)(F)C1` [Compound 114], in assay [1], the “Enzymatic hOGA; pIC50” value is 7.03 and the Emax is 100%. In assay [2], the Emax is 49.6% and the EC50 is 871 nM.

As for `Cc1ccnc(C(F)F)c1Nc1nccc2c1ccn2CC1CC(F)(F)C1` [Compound 115], in assay [1], the “Enzymatic hOGA; pIC50” value was 7.2 and the Emax is 99.6%. In assay [2], the Emax came out at 52.3% and the EC50 was around 891 nM.

As for `Cc1cc(OC(F)F)cc(Cl)c1Nc1nccc2c1ccn2CC1CC(F)(F)C1` [Compound 116], in assay [1], the “Enzymatic hOGA; pIC50” value was 7.98 and the Emax amounted to 104%. Besides, in assay [2], the Emax came out at 61.8% and the EC50 was 55 nM.

In the case of `Cc1ccnc(C(C)C)c1Nc1nccc2c1ccn2CC1CC(F)(F)C1` [Compound 117], in assay [1], the “Enzymatic hOGA; pIC50” value was 8.26 and the Emax stood at 101%. Moreover, in assay [2], the Emax was determined as 89.6% and the EC50 is 44.7 nM.

Regarding `Cc1cc(C(F)(F)F)cc(C)c1Nc1nccc2c1ccn2CC1CC(F)(F)C1` [Compound 118], in assay [1], the “Enzymatic hOGA; pIC50” value is listed as 7.89 and the Emax is 102%. In addition, in assay [2], the Emax was 71.7% and the EC50 is 74.1 nM.

On to `Cc1ccnc(OC(F)F)c1Nc1nccc2c1ccn2CC1CCO1` (centres unmarked) [Compound 119], for which, in assay [1], the “Enzymatic hOGA; pIC50” value is recorded as 8 and the Emax is 105%. In assay [2], the Emax came to 80.3% and the EC50 is 102 nM.

With `Clc1cccc(Cl)c1Nc1nccc2c1ccn2CCC1COC1` [Compound 122], in assay [1], the “Enzymatic Emax (%)” value was 103.22% and the “Enzymatic hOGA; pIC50” value amounted to 7.72. Besides, in assay [2], the Emax is 84.1% and the EC50 was 263 nM.

For `CC[C@@H](O)Cn1ccc2c(Nc3c(C)cc(C#N)cc3Cl)nccc21` [Compound 123a], in assay [1], the “Enzymatic hOGA; pIC50” value stood at 7.56 and the maximal effect (Emax) stood at 102%. Further, in assay [2], the Emax turned out to be 63.8% and the EC50 was 437 nM.

As for `CC[C@H](O)Cn1ccc2c(Nc3c(C)cc(C#N)cc3Cl)nccc21` [Compound 123b], in assay [1], the “Enzymatic hOGA; pIC50” value was 7.53 and the Emax came out at 99.2%. Also, in assay [2], the Emax is 71.1% and the EC50 was 100 nM.

`CC[C@@H](O)Cn1ccc2c(Nc3c(C)cc(C(F)(F)F)cc3C)nccc21` [Compound 124a]: in assay [1], the “Enzymatic hOGA; pIC50” value was found to be 7.88 and the Emax stood at 103%. In assay [2], the Emax is 74.7% and the EC50 is 21.9 nM.

Turning to `CC[C@H](O)Cn1ccc2c(Nc3c(C)cc(C(F)(F)F)cc3C)nccc21` [Compound 124b], in assay [1], the “Enzymatic hOGA; pIC50” value turned out to be 8.04 and the Emax was determined as 102%. In assay [2], the Emax turned out to be 76.7% and the EC50 was 27.5 nM.

Turning to `Cc1cncc(C(C)(C)O)c1Nc1nccc2c1ccn2CC1CCO1` (centres unmarked) [Compound 125], in assay [1], the “Enzymatic hOGA; pIC50” value amounted to 7.91 and the Emax worked out at 103%. Moreover, in assay [2], the Emax amounted to 74.8% and the EC50 is 43.7 nM.

As for `Cc1cc(F)cc(C)c1Nc1nccc2c1ccn2CC(C)(F)F` [Compound 126], in assay [1], the “Enzymatic hOGA; pIC50” value is listed as 8.67 and the Emax worked out at 100%. Besides, in assay [2], the maximal effect (Emax) was 87.1% and the EC50 is 10.5 nM.

Regarding `Cc1c(F)cnc(C(C)C)c1Nc1nccc2c1ccn2CC1CCO1` (centres unmarked) [Compound 127], in assay [1], the “Enzymatic hOGA; pIC50” value worked out at 8.75 and the Emax was 103%. Further, in assay [2], the Emax worked out at 76.7% and the EC50 is 11.5 nM.

In the case of `Cc1cc(C(F)(F)F)cc(Cl)c1Nc1nccc2c1ccn2CC(C)(F)F` [Compound 128], in assay [1], the “Enzymatic hOGA; pIC50” value came out at 8.58 and the Emax stood at 101%. Moreover, in assay [2], the Emax came to 90.3% and the EC50 is 12.9 nM.
